Species on record: Rattus norvegicus
Experiment: DrugMatrix - Regimen: Daily Repeat
Type: toxicity, organism-based, Sprague-Dawley
Design: regimen Daily Repeat, gender Male, age 6-8 weeks
Conditions: in vivo, po, route oral GAVAGE, vehicle .5 % CMC; for BASOPHIL / EOSINOPHIL / ERYTHROCYTE COUNT / HEMATOCRIT / HEMOGLOBIN / LEUKOCYTE COUNT / LYMPHOCYTE / MEAN CORPUSCULAR HEMOGLOBIN / MEAN CORPUSCULAR HEMOGLOBIN CONCENTRATION / MEAN CORPUSCULAR VOLUME / MONOCYTE / NEUTROPHIL / PLATELET COUNT: tissue Blood; for ALANINE AMINOTRANSFERASE / ALBUMIN / ALKALINE PHOSPHATASE / ASPARTATE AMINOTRANSFERASE / BLOOD UREA NITROGEN / CHLORIDE / CHOLESTEROL / CREATINE PHOSPHOKINASE / CREATININE / GLUCOSE / PHOSPHORUS / POTASSIUM / SODIUM / TOTAL PROTEIN: tissue Plasma
[1] = 0 mg/kg, 72 h, dose level Control, time 3 day
[2] = 0 mg/kg, 120 h, dose level Control, time 5 day
[3] = 30 mg/kg, 72 h, dose level Low, time 3 day
[4] = 30 mg/kg, 120 h, dose level Low, time 5 day
[5] = 1750 mg/kg, 72 h, dose level High, time 3 day
[6] = 1750 mg/kg, 120 h, dose level High, time 5 day

CC(=O)Oc1ccc(C(c2ccc(OC(C)=O)cc2)c2ccccn2)cc1 [BISACODYL]
BASOPHIL [1]: 0%
EOSINOPHIL [1]: 0.33%
ERYTHROCYTE COUNT [1]: 6.03 x10E6/uL
HEMATOCRIT [1]: 38.8%
HEMOGLOBIN [1]: 14.26 G/DL
LEUKOCYTE COUNT [1]: 10.64 x10E3/uL
LYMPHOCYTE [1]: 83.33%
MEAN CORPUSCULAR HEMOGLOBIN [1]: 23.64 pg
MEAN CORPUSCULAR HEMOGLOBIN CONCENTRATION [1]: 36.74 G/DL
MEAN CORPUSCULAR VOLUME [1]: 64.32 fL
MONOCYTE [1]: 3.33%
NEUTROPHIL [1]: 13%
PLATELET COUNT [1]: 1264.4 x10E3/uL
ALANINE AMINOTRANSFERASE [1]: 38.83 u/L
ALBUMIN [1]: 3.55 G/DL
ALKALINE PHOSPHATASE [1]: 368.33 u/L
ASPARTATE AMINOTRANSFERASE [1]: 66.17 u/L
BLOOD UREA NITROGEN [1]: 15.67 mg/dL
CHLORIDE [1]: 104.33 MEQ/L
CHOLESTEROL [1]: 76.5 mg/dL
CREATINE PHOSPHOKINASE [1]: 166.83 u/L
CREATININE [1]: 0.52 mg/dL
GLUCOSE [1]: 173.17 mg/dL
PHOSPHORUS [1]: 11.68 mg/dL
POTASSIUM [1]: 6.43 MEQ/L
SODIUM [1]: 149.5 MEQ/L
TOTAL PROTEIN [1]: 5.93 G/DL
BASOPHIL [2]: 0%
EOSINOPHIL [2]: 0%
ERYTHROCYTE COUNT [2]: 5.88 x10E6/uL
HEMATOCRIT [2]: 37.87%
HEMOGLOBIN [2]: 14.48 G/DL
LEUKOCYTE COUNT [2]: 12.43 x10E3/uL
LYMPHOCYTE [2]: 84.17%
MEAN CORPUSCULAR HEMOGLOBIN [2]: 24.65 pg
MEAN CORPUSCULAR HEMOGLOBIN CONCENTRATION [2]: 38.25 G/DL
MEAN CORPUSCULAR VOLUME [2]: 64.47 fL
MONOCYTE [2]: 4.33%
NEUTROPHIL [2]: 11.5%
PLATELET COUNT [2]: 1182.33 x10E3/uL
ALANINE AMINOTRANSFERASE [2]: 38.67 u/L
ALBUMIN [2]: 3.55 G/DL
ALKALINE PHOSPHATASE [2]: 342.5 u/L
ASPARTATE AMINOTRANSFERASE [2]: 63.33 u/L
BLOOD UREA NITROGEN [2]: 15.5 mg/dL
CHLORIDE [2]: 104 MEQ/L
CHOLESTEROL [2]: 75.5 mg/dL
CREATINE PHOSPHOKINASE [2]: 142.5 u/L
CREATININE [2]: 0.62 mg/dL
GLUCOSE [2]: 165.17 mg/dL
PHOSPHORUS [2]: 10.87 mg/dL
POTASSIUM [2]: 6.85 MEQ/L
SODIUM [2]: 150.17 MEQ/L
TOTAL PROTEIN [2]: 5.93 G/DL
BASOPHIL [3]: 0%
EOSINOPHIL [3]: 0%
ERYTHROCYTE COUNT [3]: 6.9 x10E6/uL
HEMATOCRIT [3]: 44.1%
HEMOGLOBIN [3]: 16.25 G/DL
LEUKOCYTE COUNT [3]: 9.75 x10E3/uL
LYMPHOCYTE [3]: 83%
MEAN CORPUSCULAR HEMOGLOBIN [3]: 23.55 pg
MEAN CORPUSCULAR HEMOGLOBIN CONCENTRATION [3]: 36.85 G/DL
MEAN CORPUSCULAR VOLUME [3]: 63.85 fL
MONOCYTE [3]: 4%
NEUTROPHIL [3]: 13%
PLATELET COUNT [3]: 1188.5 x10E3/uL
ALANINE AMINOTRANSFERASE [3]: 37.67 u/L
ALBUMIN [3]: 3.67 G/DL
ALKALINE PHOSPHATASE [3]: 281 u/L
ASPARTATE AMINOTRANSFERASE [3]: 63 u/L
BLOOD UREA NITROGEN [3]: 17 mg/dL
CHLORIDE [3]: 107 MEQ/L
CHOLESTEROL [3]: 72 mg/dL
CREATINE PHOSPHOKINASE [3]: 177 u/L
CREATININE [3]: 0.53 mg/dL
GLUCOSE [3]: 181 mg/dL
PHOSPHORUS [3]: 12.17 mg/dL
POTASSIUM [3]: 7.3 MEQ/L
SODIUM [3]: 152 MEQ/L
TOTAL PROTEIN [3]: 6.1 G/DL
BASOPHIL [4]: 0%
EOSINOPHIL [4]: 0.67%
ERYTHROCYTE COUNT [4]: 6.91 x10E6/uL
HEMATOCRIT [4]: 43.53%
HEMOGLOBIN [4]: 16.47 G/DL
LEUKOCYTE COUNT [4]: 13.9 x10E3/uL
LYMPHOCYTE [4]: 85%
MEAN CORPUSCULAR HEMOGLOBIN [4]: 23.9 pg
MEAN CORPUSCULAR HEMOGLOBIN CONCENTRATION [4]: 37.97 G/DL
MEAN CORPUSCULAR VOLUME [4]: 63 fL
MONOCYTE [4]: 3.33%
NEUTROPHIL [4]: 11%
PLATELET COUNT [4]: 1208 x10E3/uL
ALANINE AMINOTRANSFERASE [4]: 36.67 u/L
ALBUMIN [4]: 3.53 G/DL
ALKALINE PHOSPHATASE [4]: 306.33 u/L
ASPARTATE AMINOTRANSFERASE [4]: 66 u/L
BLOOD UREA NITROGEN [4]: 19 mg/dL
CHLORIDE [4]: 106.33 MEQ/L
CHOLESTEROL [4]: 70.33 mg/dL
CREATINE PHOSPHOKINASE [4]: 149.33 u/L
CREATININE [4]: 0.53 mg/dL
GLUCOSE [4]: 193.33 mg/dL
PHOSPHORUS [4]: 12.23 mg/dL
POTASSIUM [4]: 6.8 MEQ/L
SODIUM [4]: 151.67 MEQ/L
TOTAL PROTEIN [4]: 5.7 G/DL
BASOPHIL [5]: 0%
EOSINOPHIL [5]: 0%
ERYTHROCYTE COUNT [5]: 7.45 x10E6/uL
HEMATOCRIT [5]: 45.8%
HEMOGLOBIN [5]: 17.43 G/DL
LEUKOCYTE COUNT [5]: 12.3 x10E3/uL
LYMPHOCYTE [5]: 35.67%
MEAN CORPUSCULAR HEMOGLOBIN [5]: 23.5 pg
MEAN CORPUSCULAR HEMOGLOBIN CONCENTRATION [5]: 38.13 G/DL
MEAN CORPUSCULAR VOLUME [5]: 61.47 fL
MONOCYTE [5]: 13.67%
NEUTROPHIL [5]: 50.67%
PLATELET COUNT [5]: 1194 x10E3/uL
ALANINE AMINOTRANSFERASE [5]: 34 u/L
ALBUMIN [5]: 4.3 G/DL
ALKALINE PHOSPHATASE [5]: 166 u/L
ASPARTATE AMINOTRANSFERASE [5]: 53 u/L
BLOOD UREA NITROGEN [5]: 64 mg/dL
CHLORIDE [5]: 84 MEQ/L
CHOLESTEROL [5]: 44 mg/dL
CREATINE PHOSPHOKINASE [5]: 148 u/L
CREATININE [5]: 0.7 mg/dL
GLUCOSE [5]: 165 mg/dL
PHOSPHORUS [5]: 9.4 mg/dL
POTASSIUM [5]: 8.2 MEQ/L
SODIUM [5]: 131 MEQ/L
TOTAL PROTEIN [5]: 7.9 G/DL
BASOPHIL [6]: 0%
EOSINOPHIL [6]: 0%
ERYTHROCYTE COUNT [6]: 7.22 x10E6/uL
HEMATOCRIT [6]: 44.95%
HEMOGLOBIN [6]: 16.55 G/DL
LEUKOCYTE COUNT [6]: 14.05 x10E3/uL
LYMPHOCYTE [6]: 38%
MEAN CORPUSCULAR HEMOGLOBIN [6]: 22.95 pg
MEAN CORPUSCULAR HEMOGLOBIN CONCENTRATION [6]: 36.8 G/DL
MEAN CORPUSCULAR VOLUME [6]: 62.3 fL
MONOCYTE [6]: 6.5%
NEUTROPHIL [6]: 55.5%
PLATELET COUNT [6]: 1469 x10E3/uL
ALANINE AMINOTRANSFERASE [6]: 29 u/L
ALBUMIN [6]: 3.9 G/DL
ALKALINE PHOSPHATASE [6]: 258 u/L
ASPARTATE AMINOTRANSFERASE [6]: 36 u/L
BLOOD UREA NITROGEN [6]: 37 mg/dL
CHLORIDE [6]: 102.5 MEQ/L
CHOLESTEROL [6]: 71 mg/dL
CREATINE PHOSPHOKINASE [6]: 190 u/L
CREATININE [6]: 0.7 mg/dL
GLUCOSE [6]: 183 mg/dL
PHOSPHORUS [6]: 12.1 mg/dL
POTASSIUM [6]: 8 MEQ/L
SODIUM [6]: 147.5 MEQ/L
TOTAL PROTEIN [6]: 7.6 G/DL

Source: ChEMBL document CHEMBL3885881, “DrugMatrix”
